Results reported in patent US9035059B2, “Nitrogen-containing condensed heterocyclic compound” (TAISHO PHARMACEUTICAL CO., LTD., priority 2011, dated 2015).

target: MGAT2 (microsomal fraction of human small intestine) (Homo sapiens (Human), UniProt Q3SYC2); test: Test Example 2: Test of MGAT2 inhibitory action (microsomal fraction of human small intestine, 3H-labeled 2-monooleoyl glycerol); format: biochemical; details: microsomal fraction of human small intestine 5 μg/ml; 4 μM oleoyl-CoA, 1.25 μM 2-monooleoyl glycerol, 0.125 μM 3H-labeled 2-monooleoyl glycerol; room temperature 30 min; read-out: Activity Value [nM] (IC50, concentration at which 50% of the products 3H-labeled dioleoyl glycerol and trioleoyl glycerol was inhibited)
Sequence (Q3SYC2 whole entry): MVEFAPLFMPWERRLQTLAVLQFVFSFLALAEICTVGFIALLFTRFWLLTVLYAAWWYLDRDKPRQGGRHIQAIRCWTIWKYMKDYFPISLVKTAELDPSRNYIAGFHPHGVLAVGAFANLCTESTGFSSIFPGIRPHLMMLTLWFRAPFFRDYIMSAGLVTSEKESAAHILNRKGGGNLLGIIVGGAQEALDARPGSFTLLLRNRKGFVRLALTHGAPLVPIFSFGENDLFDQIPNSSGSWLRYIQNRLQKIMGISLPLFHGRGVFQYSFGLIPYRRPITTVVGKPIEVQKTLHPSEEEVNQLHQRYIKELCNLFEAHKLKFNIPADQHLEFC
Experimental: An MGAT2 inhibition test for test compounds was conducted in accordance with a partially modified version of the method described in John F. Lockwood et al., Am. J. Physiol. Endocrinol. Metab., 2003, 285, E927.
A 10 mg/mL microsomal fraction of human small intestine (duodenum- and jejunum-derived fraction purchased from Becton Dickinson Japan) was used as an enzyme source.
The test was conducted using a flat-bottom 96-well plate (Corning).
A buffer solution with final concentrations of 5 mM magnesium chloride, 1.25 mg/ml bovine serum albumin and 100 mM Tris-HCl (pH=7.5) was prepared and the microsomal fraction of human small intestine was added thereto to give a final concentration of 5 μg/ml. […] Thereafter, final concentrations of 5 mM magnesium chloride, 1.25 mg/ml bovine serum albumin, 100 mM Tris-HCl (pH=7.5), 4 μM oleoyl-CoA, 1.25 μM 2-monooleoyl glycerol and 0.125 μM ^3H-labeled 2-monooleoyl glycerol (Muromachi Yakuhin Co., Ltd.) were added thereto to give a total volume of 100 μl. This mixture was reacted at room temperature for 30 min.
The reaction was stopped by adding an equal amount of isopropanol to the reaction mixture. The substrate contained in the reaction mixture (^3H-labeled 2-monooleoyl glycerol) and the reaction products (^3H-labeled dioleoyl glycerol and trioleoyl glycerol) were separated by adsorbing them onto an octadecylsilane resin (Wako gel 50C18) (Wako Pure Chemical Industries, Ltd.), removing the substrate by use of 80% isopropanol, and then eluting the reaction products with 100% isopropanol. The amounts of the reaction products were measured with MicroBeta (PerkinElmer Japan).

SMILES | IC50
CC(C)(C)c1ccc(CC(C)(C)N2CCc3cc(S(=O)(=O)Nc4ccc(CCCC5CCCC5)cc4F)ccc3C2)cc1 [20-2] | 14 nM
CC(C)(C)c1ccc(CC(C)(C)N2CCc3cc(S(=O)(=O)Nc4ccc(OCCC5CCOCC5)cc4F)ccc3C2)cc1 [20-3] | 223 nM
CC(C)(C)c1ccc(C(C)(C)N2CCc3cc(S(=O)(=O)Nc4ccc(CCCC5CCCC5)cc4F)ccc3C2)cn1 [20-4] | 5 nM
CC(c1ccnc(C(C)(C)C)c1)N1CCc2cc(S(=O)(=O)Nc3ccc(CCCC4CCCC4)cc3F)ccc2C1 (stereo not shown) [23-3] | 13 nM
CC(c1ccc(OCC(F)(F)F)nc1)N1CCc2cc(S(=O)(=O)Nc3ccc(CCCC4CCCC4)cc3F)ccc2C1 (stereo not shown) [23-6] | 115 nM
C[C@H](c1ccc(C(C)(C)C)nc1)N1CCc2cc(S(=O)(=O)Nc3ccc(CCCC4CCCC4)cc3F)ccc2C1 [24-1, 2-[(1R)-1-(6-tert-Butylpyridin-3-yl)ethyl]-N-[4-(3-cyclopentylpropyl)-2-fluorophenyl]-1,2,3,4-tetrahydroisoquinoline-6-sulfonamide] | 4 nM
C[C@@H](c1ccc(C(C)(C)C)nc1)N1CCc2cc(S(=O)(=O)Nc3ccc(CCCC4CCCC4)cc3F)ccc2C1 [24-2, 2-[(1S)-1-(6-tert-butylpyridin-3-yl)ethyl]-N-[4-(3-cyclopentylpropyl)-2-fluorophenyl]-1,2,3,4-tetrahydroisoquinoline-6-sulfonamide] | 29 nM
CC(C)(C)n1cc(CN2CCc3cc(S(=O)(=O)Nc4ccc(CCCC5CCCC5)cc4F)ccc3C2)cn1 [Working Example 2-4] | 92 nM
CC(C)n1cc(CN2CCc3cc(S(=O)(=O)Nc4ccc(CCCC5CCCC5)cc4F)ccc3C2)cn1 [Working Example 2-5] | 180 nM
CC(C)Cn1cc(CN2CCc3cc(S(=O)(=O)Nc4ccc(CCCC5CCCC5)cc4F)ccc3C2)cn1 [Working Example 2-6] | 174 nM
O=S(=O)(Nc1ccc(CCCC2CCCC2)cc1F)c1ccc2c(c1)CCN(Cc1cnn(CC3CC3)c1)C2 [Working Example 2-7] | 234 nM
CCCn1cc(CN2CCc3cc(S(=O)(=O)Nc4ccc(CCCC5CCCC5)cc4F)ccc3C2)cn1 [Working Example 2-8] | 213 nM
O=S(=O)(Nc1ccc(CCCC2CCCC2)cc1F)c1ccc2c(c1)CCN(Cc1cnn(C3CCC3)c1)C2 [Working Example 2-9] | 142 nM
CC(C)(C)n1cc(CN2CCc3cc(S(=O)(=O)Nc4ccc(OCCC5CCOCC5)cc4F)ccc3C2)cn1 [Working Example 2-10] | 198 nM
CCn1cc(CN2CCc3cc(S(=O)(=O)Nc4ccc(CCCC5CCCC5)cc4F)ccc3C2)cn1 [Working Example 6-82] | 182 nM
O=S(=O)(Nc1ccc(OCCC2CCOCC2)cc1F)c1ccc2c(c1)CCN(Cc1cnc(C(F)(F)F)nc1)C2 [Working Example 6-83] | 193 nM
O=S(=O)(Nc1ccc(CCCC2CCCC2)cc1F)c1ccc2c(c1)CCN(Cc1ccc(OCC(F)(F)F)nc1)C2 [Working Example 6-84] | 248 nM
CC(C)(C)c1cc(CN2CCc3cc(S(=O)(=O)Nc4ccc(CCCC5CCCC5)cc4F)ccc3C2)ccn1 [Working Example 6-85] | 71 nM
CC(C)(C)c1ncc(CCN2CCc3cc(S(=O)(=O)Nc4ccc(CCCC5CCCC5)cc4F)ccc3C2)s1 [Working Example 6-88] | 248 nM
CC(C)(C)c1cc(CCN2CCc3cc(S(=O)(=O)Nc4ccc(CCCC5CCCC5)cc4F)ccc3C2)ccn1 [Working Example 6-90] | 164 nM
Cc1nc(-c2ccccc2)sc1CN1CCc2cc(S(=O)(=O)Nc3ccc(CCCC4CCCC4)cc3F)ccc2C1 [Working Example 7-65] | 118 nM
Cc1c(CN2CCc3cc(S(=O)(=O)Nc4ccc(CCCC5CCCC5)cc4F)ccc3C2)cnn1-c1ccccc1 [Working Example 7-70] | 81 nM
Cc1nn(-c2ccccc2)c(C)c1CN1CCc2cc(S(=O)(=O)Nc3ccc(CCCC4CCCC4)cc3F)ccc2C1 [Working Example 7-71] | 57 nM
O=S(=O)(Nc1ccc(CCCC2CCCC2)cc1F)c1ccc2c(c1)CCN(Cc1cnc(-c3ccc(Cl)cc3)s1)C2 [Working Example 7-74] | 105 nM

The next lines start with the values.

IC50 | SMILES
42 nM | CC(c1ccc(C(F)(F)F)nc1)N1CCc2cc(S(=O)(=O)Nc3ccc(CCCC4CCCC4)cc3F)ccc2C1 (single isomer, unassigned) [24-3]
185 nM | CC(c1ccc(C(F)(F)F)nc1)N1CCc2cc(S(=O)(=O)Nc3ccc(CCCC4CCCC4)cc3F)ccc2C1 (single isomer, unassigned) [24-4]
57 nM | CC(c1cnc(C(C)(C)C)nc1)N1CCc2cc(S(=O)(=O)Nc3ccc(CCCC4CCCC4)cc3F)ccc2C1 (single isomer, unassigned) [24-7]
34 nM | CC(c1cnc(C(C)(C)C)nc1)N1CCc2cc(S(=O)(=O)Nc3ccc(CCCC4CCCC4)cc3F)ccc2C1 (single isomer, unassigned) [24-8]
131 nM | CC(c1cnc(C(F)(F)F)nc1)N1CCc2cc(S(=O)(=O)Nc3ccc(CCCC4CCCC4)cc3F)ccc2C1 (single isomer, unassigned) [24-9]
100 nM | CC(c1cnc(C(F)(F)F)nc1)N1CCc2cc(S(=O)(=O)Nc3ccc(CCCC4CCCC4)cc3F)ccc2C1 (single isomer, unassigned) [24-10]
200 nM | CC(C)(C)c1ccc(CC2(N3CCc4cc(S(=O)(=O)Nc5ccc(CCCC6CCCC6)cc5F)ccc4C3)CC2)cc1 [25-1, 2-[1-(4-tert-Butylbenzyl)cyclopropyl]-N-[4-(3-cyclopentylpropyl)-2-fluorophenyl]-1,2,3,4-tetrahydroisoquinoline-6-sulfonamide]
60 nM | CC(C)(C)c1ccc(C2(N3CCc4cc(S(=O)(=O)Nc5ccc(CCCC6CCCC6)cc5F)ccc4C3)CC2)cn1 [25-2]

target: human MGAT2 (Homo sapiens (Human), UniProt Q3SYC2); test: Test Example 1: Test of MGAT2 inhibitory action (human MGAT2 enzyme fraction from Sf9 cells, free CoA detected by CPM fluorescence); format: biochemical; details: human MGAT2 enzyme fraction expressed in Sf9 insect cells, 0.5 μg/ml, 2-monooleoyl glycerol 0.78 μM, oleoyl-CoA 5.3 μM, room temperature 20 min, listed as 10-9, read-out: Activity Value [nM] (IC50, concentration at which 50% of produced free CoA was inhibited)
Sequence (Q3SYC2 whole entry): as above
Experimental: The MGAT2 inhibitory action of the inventive compound was measured by the methods described in Test Examples as shown below. The MGAT enzyme activity was measured based on the amount of an indicator, free Coenzyme A (CoA) which is generated by the reaction shown below, using a sulfhydryl reactive pigment (7-diethylamino-3-(4-maleimidophenyl)-4-methylcoumarin; hereinafter, sometimes abbreviated as CPM).
A test for MGAT2 inhibitory action of test compounds was conducted in accordance with a partially modified version of the method described in John F. Lockwood et al., Am. J. Physiol. Endocrinol. Metab., 2003, 285, E927.
Bac-to-Bac Baculovirus Expression System (Life Technologies Japan) was used to express human MGAT2 in insect cells (Sf9) (Life Technologies Japan). These cells were sonicated and centrifuged at 100,000 g×1 hr to give a precipitate. The precipitate was used as a human MGAT2 enzyme fraction in this assay.
This test was conducted using a black flat-bottom 96-well plate (Corning). A buffer solution with final concentrations of 5 mM magnesium chloride, 100 mM sucrose and 100 mM Tris-HCl (pH=7.5) was prepared and test compounds prepared in various concentrations using dimethyl sulfoxide were added thereto to give a final dimethyl sulfoxide concentration of 1%. The MGAT2 enzyme fraction was added thereto to give a final concentration of 0.5 μg/ml and phosphatidylcholine, 2-monooleoyl glycerol and oleoyl-CoA were added thereto to give final concentrations of 7.5 μM, 0.78 μM and 5.3 μM, respectively, before starting a reaction. The reaction was performed at room temperature for 20 min.
After 20 min, a CPM-containing solution was added thereto to give a final concentration of 5 μM before stopping the MGAT reaction. After 1 hr, a fluorescence detector (Infinite 200 from Tecan Japan) was used to measure the CPM fluorescence value of each well (excitation 380 nm, emission 460 nm).

SMILES | IC50
CCCCCCCCOc1ccc(NS(=O)(=O)c2ccc3c(c2)CCN(C(C)Cc2ccc(C(C)(C)C)cc2)C3)c(F)c1 (stereo not shown) [Working Example 10-9] | 96 nM

same assay, conditions: human MGAT2 enzyme fraction expressed in Sf9 insect cells, 0.5 μg/ml, 2-monooleoyl glycerol 0.78 μM, oleoyl-CoA 5.3 μM, room temperature 20 min, listed as 10-10, read-out: Activity Value [nM] (IC50, concentration at which 50% of produced free CoA was inhibited)

SMILES | IC50
CCCCCCCCOc1ccc(NS(=O)(=O)c2ccc3c(c2)CCN(C(C)Cc2ccc(C(C)(C)C)cc2)C3)c(F)c1 (stereo not shown) [Working Example 10-10] | 97 nM

same assay, conditions: human MGAT2 enzyme fraction expressed in Sf9 insect cells, 0.5 μg/ml, 2-monooleoyl glycerol 0.78 μM, oleoyl-CoA 5.3 μM, room temperature 20 min, read-out: Activity Value [nM] (IC50, concentration at which 50% of produced free CoA was inhibited)

SMILES | IC50
CCCCCCOc1ccc(NS(=O)(=O)c2ccc3c(c2)CCN(CCc2ccc(C(C)(C)C)cc2)C3)c(F)c1 [Working Example 8-3] | 133 nM
CCCCCCOc1ccc(NS(=O)(=O)c2ccc3c(c2)CCN(CCc2cnc(C(C)(C)C)cn2)C3)c(F)c1 [Working Example 9-20] | 212 nM
CCCCCCOc1ccc(NS(=O)(=O)c2ccc3c(c2)CCN(CCc2ncc(C(C)(C)C)cn2)C3)c(F)c1 [Working Example 9-21] | 164 nM
CC(c1ccc(C(C)(C)C)nc1)N1CCc2cc(S(=O)(=O)Nc3ccc(OCCCc4ccccc4)cc3F)ccc2C1 (stereo not shown) [Working Example 11-2] | 121 nM
CC(c1ccc(C(C)(C)C)cc1)N1CCc2cc(S(=O)(=O)Nc3ccc(OCCCc4ccccc4)cc3F)ccc2C1 (stereo not shown) [Working Example 11-3] | 116 nM
CCC(c1ccc(C(C)(C)C)cc1)N1CCc2cc(S(=O)(=O)Nc3ccc(OCCCc4ccccc4)cc3F)ccc2C1 (stereo not shown) [Working Example 11-4] | 235 nM
